From US20130017265A1, “PARTICLES FOR MULTIPLE AGENT DELIVERY” (MASSACHUSETTS INSTITUTE OF TECHNOLOGY, priority 2009, published 2013) come the findings set out here.

In one assay the test system is LNCaP cells. Nature of the assay: MTT cytotoxicity assay, LNCaP cells. Format: cell-based, human. The conditions noted are these: for IC50: MTT, 12 hours treatment, further 48 hours, [Pt] = 25 * [Doce]. The protocol:
(§1) The ability of the targeted drug releasing construct nanoparticles to promote cell death was determined using the MTT assay using human prostate cancer LNCaP and PC3 cells and compared against the standard compounds cisplatin and the Pt(IV)-monosuccinate prodrug. Human prostate cancer LNCaP and PC3 cells were obtained from the ATCC. […] The cells were incubated at 37° C. in 5% CO2 in RPMI growth medium supplemented with 10% fetal bovine serum and 1% penicillin/streptomycin. The cells were passaged every 3 to 4 days and restarted from the frozen stock upon reaching passage number 20. Cytotoxic activity of the constructs was evaluated using the MTT assay. Solutions of the different constructs were freshly prepared in sterile PBS before use. All platinum constructs were quantified by atomic absorption spectroscopy. LNCaP and PC3 cells were seeded on a 96-well plate in 100 μL RPMI media and incubated for 24 hours.
(§2) The cells were then treated with different constructs at varying concentrations and incubated for 12 hours at 37° C. Fresh medium was replaced after 12 hours incubation with nanoparticles, and the cells were incubated for a further 48 hours. The cells were then treated with 20 μL of 3-(4,5-dimethylthiazol-2-yl)-2,5-diphenyltetrazolium bromide (MTT) (5 mg/mL in PBS) and incubated for 5 hours. The medium was removed, the cells were lysed by adding 100 μL of DMSO, and the absorbance of the purple formazan was recorded at 550 nm using a microplate spectrophotometer. Each sample was assayed in triplicate in three independent experiments for each cell line.
On the technique in general: Formazan colour is commonly taken as a measure of viable cells.

A further assay relates to PC3 cells. Nature of the assay: MTT cytotoxicity assay, PC3 cells. The conditions noted are these: for IC50: MTT, 12 hours treatment, further 48 hours, [Pt] = 25 * [Doce]. Format: cell-based, human. As to the method: as §1, §2

Take `N.N.[Cl][Pt][Cl]` [Cisplatin]: the IC50 (commonly the concentration needed to halve the response being measured) with LNCaP cells was > 5 µM; in the assay with PC3 cells, 9.9 µM.

For “c,c,t[Pt(NH3)Cl2(OH)(succinate)] [Pt-Monosuccinate]”, the effect on viability entry with LNCaP cells (LNCaP cells, compared with cisplatin, PolyPt-NP, PolyPt-NP-Apt) was “least effect on viability”; in the assay with PC3 cells (PC3 cells, compared with cisplatin, PolyPt-NP, PolyPt-NP-Apt), “least effect on viability”. Also, the IC50 in the assay on LNCaP cells turned out to be 106 µM; in the assay on PC3 cells, 36 µM.
